Experiments:
Format in all cases: in vivo, rat (male Sprague-Dawley)
[1] = test system: fed, healthy rats; experiment: Triglyceride-lowering effect in blood plasma of fed, healthy rats; details: for (B) Triglycerides (%), change vs placebo-treated control animals: blood plasma, fed healthy rats, oral 100 μmol/kg for 16 days, 24 hours after last administration, mean of 10
Experimental: (§1) What is stated are the changes in per cent of the animals which have been treated with substance, compared to control animals which were treated with placebo, calculated from the mean values of in each case 10 individual values.
(§2) The test animals used were male Sprague-Dawley rats from the SPF breed Ivanovas (Kisslegg, Germany) having a body mass of 255-400 g. The animals were kept in a conventional manner, 4 animals each in cages made of Makrolon (22×38 cm) in a climatized room (21-23 degrees Celsius) with a fixed day/night rhythm (7a.m/7p.m) and a regulated relative atmospheric humidity of 55-60%. The animals received a maintenance diet—Altromin 1320 from Altromin (Lage, Germany)—and water ad libitum.
(§3) The animals were divided at random in 5 groups of 10 animals each and marked. The substances were administered to the animals in the form of a neutral, aqueous emulsion (1 part by weight of substance+2 parts by weight of Cremophor EL—an emulsifier from BASF AG, Germany—) in a volume of 10 ml/kg of body weight using a stomach tube.
(§4) To determine the parameters triglycerides, cholesterol and the activity of the glutamic-pyruvic transaminase (GPT), blood plasma was used. The blood plasma was obtained as an erythrocyte-free supernatant 15 minutes after venous blood sampling into heparinized Eppendorf reaction vessels by centrifugation (2×2 minutes at 16,000 rpm in an Eppendorf centrifuge).
Enzymatic test with lipase/glycerokinase, test combination from Boehringer Mannheim, Germany.

[2] = test system: healthy, fed rats; experiment: Increase of relative weight of the heart (cardiac hypertrophy); details: weight of heart/100 g body weight, oral equimolar doses for 16 days, 24 hours after last administration
From the text: as §2, §3
The animals were killed by decapitation and exsanguination, and the weight of the heart muscle, which had been freed from the right atrium, was determined by weighing and based on 100 g of body. weight.

[3] = test system: insulin-resistant rats (after 24 hour fasting); experiment: Blood glucose-lowering effect in insulin-resistant (24 hour fasted) rats; details: for (A) Glucose (%), change vs placebo-treated control animals: blood, rats fasted 24 hours, 2 hours after oral administration of 100 μmol/kg, mean of 10 animals; for Superiority compared to the prior art with respect to lowering glucose after fasting: fasting as experimental model of insulin resistance, result in words
Experimental: The compounds of the formula I according to the invention lower the glucose concentration in the blood of rats which have been made insulin-resistant by prolonged fasting.
as §1, §2
To determine the effect of the substance on blood glucose, feed was withdrawn 24 hours before the administration of the substance to produce an insulin-resistant condition.
as §3
To determine the glucose in the blood, 50 μl of blood were collected from the retrobulbular venousplexus 2 hours after the administration of the substance, using a glass capillary, from animals which had been fasting for 24 hours, and the blood was deproteinated in ice-cold perchloric acid (0.66 mol/l). After centrifugation, the glucose was determined in the supernatant using enzymatic standard methods.
Enzymatic test with hexokinase/[…], test combination from Boehringer Mannheim, Germany.

[4] = test system: fed, healthy rats; experiment: Cholesterol-lowering effect in blood plasma of fed, healthy rats; details: oral 100 μmol/kg for 16 days, 24 hours after last administration, mean of 10
Experimental: as §1, §2, §3, §4
Enzymatic colour test (CHOD-PAP method), test combination from Boehringer Mannheim, Germany.

[5] = test system: healthy, fed rats; experiment: Pharmacological safety index; details: for (C) Safety index (%): lowering of glucose + triglycerides + cholesterol in per cent divided by increase of GPT activity + relative heart weight in per cent, higher = safer; for Safety index compared to the prior art: result in words, from Table 2
From the text: The higher the index, the greater the safety of the substance.

[6] = test system: healthy, fed rats; experiment: Increase in activity of liver enzyme glutamic-pyruvate transaminase (GPT) in blood plasma; details: oral equimolar doses for 16 days, 24 hours after last administration
From the text: as §2, §3, §4
Kinetic enzyme test, test combination from Boehringer Mannheim, Germany.

SMILES	(B) Triglycerides (%), change vs placebo-treated control animals [1] [%]	(B) Relative weight of the heart (%), increase [2] [%]	(A) Glucose (%), change vs placebo-treated control animals [3] [%]	(C) Cholesterol (%), change vs placebo-treated control animals [4] [%]	(C) Safety index (%) [5] [%]	(A) GPT activity (%), increase [6] [%]	Superiority compared to the prior art with respect to lowering glucose after fasting [3]	Safety index compared to the prior art [5]	Effect compared to the prior art, taking into account the triglyceride- and cholesterol-lowering effect ([1]; result in words, from Tab. 1)
CCOC(=O)C1(CCCCCCOc2ccc(Cl)cc2)CO1 (stereo not drawn) [Substance 1]	−50	14	−18	−15	3.77	8			
CCOC(=O)C1(CCCCCCOc2ccc(OC(F)F)cc2)CO1 (stereo not drawn) [Substance 2]	−69	14	−27	−13	5.74	5	particularly pronounced	superior to the prior art	
CCOC(=O)C1(CCCCCOc2ccc(OC(F)F)cc2)CO1 (stereo not drawn) [Substance 3]	−73	11	−27	−26	5.48	12	particularly pronounced	superior to the prior art	superior to the prior art
CCOC(=O)C1(CCCCCOc2ccc(C(C)=O)cc2)CO1 (stereo not drawn) [Substance 4]	−41	−2	−7	−8	56	−9		particularly superior to the prior art	
